The test system of data set [1] is Staphylococcus aureus strain USA300-LAC. The data set is described as follows: Lethal bacteremia infection model, survival. To be noted: 10 mg/kg/day intraperitoneal, twice per day, 7 days. Format: in vivo, Balb/c mice. On the procedure: FIG. 8 is a line graph showing compound 8 and compound 35 rescue mice from Staphylococcus aureus bacteremia infection model. Statistical analysis was performed with a log rank test (Mantel Cox test). (*p<0.05).
Staphylococcus aureus strain USA300-LAC were cultured to the early exponential phase of growth, washed twice with sterile phosphate-buffered saline solution (PBS), and resuspended in PBS at 3×10^7 CFU/200 μL for lethal bacteremia model. The female Balb/c mice, 6-8 weeks, were infected intravenously (i.v.) through the tail vein with Staphylococcus aureus and randomized into three groups (N=11 for vehicle; N=12 for compound 8 and compound 35 respectively). Six hour after infection, mice received intraperitoneal injections of compound 8 or compound 35 (10 mg/kg/day) or an injection of buffer (PBS with 2.5% DMSO and 2% Tween-80) as the control. The compound and injection buffer treatments were performed twice per day at 12-h intervals. The challenged mice were monitored for 7 days, at which point all the remaining mice were sacrificed. Statistical analysis was performed with a log rank test (Mantel Cox test). (*p<0.05).

A further data set concerns MRSA-USA300LAC. The data set is described as follows: MIC by CLSI broth micro-dilution, MRSA-USA300LAC. Format: cell-based. To be noted: Staphylococcus aureus, read-out: Minimum inhibitory concentration. On the procedure: (§1) Aminoxy acids were synthesized by the standard peptide coupling procedures. Minimum inhibitory concentration was determined using CLSI broth micro-dilution method in 96-wells microtitre plates. Minimum inhibitory concentration is defined as the lowest concentration of the compound that inhibits visible growth of the bacteria. All experiments were performed three times. 24 compounds including aminoxy acid monomers and dipeptides have been identified to show toxicity against multidrug resistant Staphylococcus aureus Mu3 and summarized in Table 1. The minimum inhibitory concentration of compound 8 and compound 35 on other gram-positive bacteria was also evaluated and summarized in Table 2. […] As shown in FIGS. 3A-3B there are no observable hemolysis for compound 8 and compound 35 towards human red blood cell.
(§2) Bacteria were streaked from the glycerol stock into BHI agar and were incubated overnight. Single colony was picked for the overnight culture in cation-adjusted Mueller Hinton broth (CAMH), LB or BHI. The overnight culture was sub-cultured and regrew to exponential phase for the experiment.
(§3) MIC was determined by CLSI broth micro-dilution method in 96-wells microtitre plates. […] Optical density was recorded by DTX 880 multimode detector (Beckman Coulter, California, US). […]
Background: In broth dilution the organism is exposed to a series of concentrations in liquid medium.

The test system of data set [2] is E. faecalis clinical strain. The data set is described as follows: MIC by CLSI broth micro-dilution, E. faecalis. As to conditions: Enterococcus faecalis, BHI medium, read-out: Minimum inhibitory concentration. The format is cell-based. On the procedure:
as §1, §2, §3

The test system of a further data set is MDCK. The data set is described as follows: Mammalian cell cytotoxicity assay (MTT), MDCK. To be noted: at 16 folded MIC (50 μM compound 8, 12.5 μM compound 35). Format: cell-based. On the procedure: (§4) FIGS. 2A-2B are the bar graphs showing the cytotoxicity of compound 8 (FIG. 2A) and compound 35 (FIG. 2B) towards mammalian cell NIH3T3, MDCK and MIHA. % survival is mean±S.D normalized to DMSO as the negative control of a representative experiment. Biological triplicates were conducted.
(§5) In the treated culture dish, cells were washed by PBS and then trypsinized. DMEM was added to quench the reaction. Cells were centrifuged and resuspended into fresh DMEM. Cells were then seeded in 96-well microtitre plate (100 μL, 5000 cells per well) for 24 hours before addition of compounds. The compounds were two-fold serial diluted by DMSO in a DMSO-compatible 96-well plate. 1 μL of compound in DMSO is transferred into the 96-well microtitre preparation plate containing 100 μL DMEM medium. The medium in culture plate was removed and compounds in preparation plate were transferred to culture plate. Equal volume of DMSO was used as negative control.
(§6) After 24 hours of incubation of cells, cell viability was measured by MTT assay. In MTT assay, 20 μL 5 mg/mL MTT solution in PBS was added to cell medium and cultured for 3 hours. The medium was then removed and 50 μL DMSO was added and cultured for 10 minutes. Absorbance at 595 nm was measured spectrophotometrically (Beckman Coulter DTX 880 Multimode Detector) and normalized to DMSO group. Biological replicates were performed.

Data set [3] relates to Staphylococcus aureus ATCC 29213 persister. As to the kind of experiment: Killing of Staphylococcus aureus persister. Format: cell-based. To be noted: 10×MIC, persisters enriched with ciprofloxacin. From the text: FIG. 4 is a line graph showing the killing kinetics of the compound 8 and compound 35 towards Staphylococcus aureus persister compared to the conventional antibiotics. […] Data were representative of 3 independent experiments±S.D.
Persisters are the phenotypic variants of the normal bacteria with reduced metabolism. They highly tolerate to the conventional […]. Persisters was enriched by the addition of 100-fold minimum inhibitory concentration of bactericidal antibiotics ciprofloxacin to the stationary phase bacteria. After 24 hours' culture, ciprofloxacin was removed. Persisters were treated with compound 8, compound 35 or different conventional antibiotics.
S. aureus ATCC 29213 cells were sub-cultured from an overnight culture in CAMH 1:100 for 24 hours at 37° C. with 250 rpm shaking speed. Persisters were prepared by addition of ciprofloxacin hydrochloride (25 μg/mL, 100×MIC in Staphylococcus aureus ATCC 29213) and cultured for 24 hours at 37° C. with 250 rpm shaking speed. Persisters were washed by PBS (12,000×g, 3 minutes) and resuspended in PBS+1% CAMH medium (same volume as original culture). 1 mL portions were aliquoted into fresh culture tubes, and different antibiotics or DMSO (1% maximum concentration) were added, followed by incubation at 37° C. with 250 rpm shaking speed. […]

Data set [4] relates to multidrug resistant Staphylococcus aureus Mu3. The data set is described as follows: MIC by CLSI broth micro-dilution, MRSA Mu3. Format: cell-based. On the procedure:
as §1, §2
MIC was determined by CLSI broth micro-dilution method in 96-wells microtitre plates. For compounds dissolved in water, 100 μL of 2× testing concentration was added to the first well of each column, followed by two-fold serial dilution for successive wells with 50 μL medium. For chemical compounds dissolved in DMSO, the compounds were two-fold serial diluted by DMSO in a DMSO-compatible 96-well plate. 1 μL of compound in DMSO was transferred into 96-wells microtitre plate containing 50 μL medium to give 2× testing concentration. An overnight culture of bacteria was grown into exponential phase. The bacteria culture was diluted to 1×10^6 CFU/mL and 50 μL of diluted culture were added into each well. The test plates were kept in a 37° C. incubator overnight. Optical density was recorded by DTX 880 multimode detector (Beckman Coulter, California, US). MIC is defined as the lowest concentration of the compound that inhibits visible growth of bacteria. Biological replicates were performed. CAMH was used for bacteria culture and MIC test except S. pneumoniae, L. monocytogenes, E. faecalis and M. smegmatis for which BHI was used as culture medium

Another data set concerns MIHA. The data set is described as follows: Mammalian cell cytotoxicity assay (MTT), MIHA. To be noted: at 16 folded MIC (50 μM compound 8, 12.5 μM compound 35). The format is cell-based. The protocol: as §4, §5, §6
Where [5] appears, read: MRSA Mu3 (Table 2), read-out: Minimum inhibitory concentration.
The mark [6] stands for this setting: MRSA, CLSI broth micro-dilution, CAMH, read-out: Minimum inhibitory concentration (μM) in MRSA Mu3.

Each structure is given as a SMILES string. Values after ≈ are worked out from the molar mass of the structure shown. Read-outs that look alike come from different tables or passages of the source.

2 compounds from patent US20240315992A1, “AMINOXY ACID-BASED ANTIBACTERIAL COMPOUNDS AND METHODS THEREOF” (The University of Hong Kong, priority 2023, published 2024) can be followed below.

In the case of `CC(C)C[C@H](ONC(=O)[C@@H](COCc1ccccc1)ONC(=O)c1cc(C(F)(F)F)cc(C(F)(F)F)c1)C(=O)Nc1ccc2c(c1)OC(F)(F)O2` [Compound 35], the “rescue of mice from bacteremia infection (survival)” value in data set [1] is reported as “can rescue mice”. Besides, the MIC with MRSA-USA300LAC was 1.56 µM (≈ 1.15 µg/mL); in data set [2], 6.25 µM (≈ 4.6 µg/mL); in data set [4] (setting [5]), 0.78 µM (≈ 0.574 µg/mL); in data set [4] (setting [6]), 0.781 µM (≈ 0.574 µg/mL). The “toxicity against mammalian cell MDCK” value in the data set on MDCK is on record as “minimal toxicity”. Moreover, the “bactericidal effect on Staphylococcus aureus persister” value in data set [3] is “can eradicate the Staphylococcus aureus persister”. Further, the “toxicity against mammalian cell MIHA” value in the data set on MIHA is reported as “minimal toxicity”.
Consider `CC(C)C[C@H](ONC(=O)[C@@H](COCc1ccccc1)ONC(=O)c1cc(C(F)(F)F)cc(C(F)(F)F)c1)C(=O)Nc1ccccc1` [Compound 8], for which, in data set [1], the “rescue of mice from bacteremia infection (survival)” value was “can rescue mice”. Moreover, the MIC (in the data set on MRSA-USA300LAC; in data set [2]; in data set [4] (setting [5]); in data set [4] (setting [6])) was 3.13 µM (≈ 2.05 µg/mL) throughout. For the same compound, in the data set on MDCK, the “toxicity against mammalian cell MDCK” value was “minimal toxicity”. The “bactericidal effect on Staphylococcus aureus persister” value in data set [3] is “can eradicate the Staphylococcus aureus persister”. In addition, the “toxicity against mammalian cell MIHA” value with MIHA is listed as “minimal toxicity”.
